Test results: patent publication EP0113632A1, “Process for the preparation of halogen methylates of levallorphane, and peripheral narcotic antagonist pharmaceutical compositions containing them” (SANOFI S.A., priority 1982, dated 1984)

How the values were obtained:
[1] = system: effet constipant de la morphine; test: Charcoal meal intestinal transit test (Green, modified): antagonism of the constipating effect of morphine; type: in vivo, souris; details: for ED50: Mus musculus, sc, read-out: Antagonisme à l'effet constipant DI50c; for ED50 / Antagonisme à l'effet constipant DI50c: female mice fasted 20 h, s.c. 5 min before morphine 12 mg/kg s.c. and charcoal meal, sacrifice after 30 min, dose inhibiting the effect by 50 %, extrapolated from log dose-response regression, limits in parentheses
Experimental: L'antagonisme à l'effet constipant de la morphine des halomèthylates de lévallorphan de la présente invention a été évalué selon le test décrit par A.F. Green (Pr. J. Pharmacol. Chemother. 1959, 14, 26), opportunément modifié.
On utilise trois groupes de souris femelles de 20 g environ à jeun depuis 20 heures. A un groupe témoin, on administre par voie orale un repas constitué par 0,2 ml d'un mélange de gomme arabique 5 % (6 ml), farine (2 g) et charbon (1 g). Au deuxième groupe on administre par la voie sous-cutanée 12 mg/kg de morphine et, immédiatement après, le repas au charbon ci-dessus. Le troisième groupe est traité par l'antagoniste sous examen par voie sous-cutanée, puis, après 5 minutes, par 12 mg/kg de morphine par voie sous-cutanée et, tout de suite après, par le repas au charbon. Après trente minutes, les animaux sont sacrifiés pour l'évaluation de la portion intestinale parcourue par le charbon, exprimée en pour cent de la longueur totale de l'intestin grèle.
(§1) L'activité des substances à activité antagoniste périphérique des narcotiques est évaluée sur la base de l'inhibition pour cent de l'effet constipant et de l'effet analgésique de la morphine. La dose qui inhibe de 50 % lesdits effets (DI50c pour l'effet constipant et […] pour l'effet analgésique) a été extrapolée de la droite de régression log dose-réponse en appliquant l'analyse de la variance par régression linéaire.

[2] = system: effet analgésique de la morphine; test: Hot plate test: antagonism of the analgesic effect of morphine; type: in vivo, souris; details: for ED50: Mus musculus, sc, read-out: Antagonisme à l'effet analgésique DI50a; for ED50 / Antagonisme à l'effet analgésique DI50a: female mice, s.c. 5 min before morphine 24 mg/kg s.c., hot plate 30 min after morphine, dose inhibiting the effect by 50 %, extrapolated from log dose-response regression, limits in parentheses; for DI50a/DI50c: ratio of DI50 for the analgesic effect (hot plate) to DI50 for the constipating effect (charcoal meal)
Experimental: L'antagonisme à l'effet analgésique de la morphine a été évalué selon le test classique pour l'analgésie de la plaque chauffante (Eddy et Leibach, J. Pharmacol. 1953, 107, 385, modifié par Janseen et Jagenau, J. Pharm. Pharmacol. 1957, 9, 381-400). Ce test est très sensible pour l'action des antogonistes des opiacés.
On utilise des souris femelles de 18 à 22 g. Les substances sont administrées en solution physiologique (20 ml/kg) par voie sous-cutanée 5 minutes avant l'administration de la morphine (24 mg/kg s.c.). Trente minutes après la morphine, on place les animaux sur la plaque chauffante et l'on évalue le temps de réaction des animaux qui présentent la réaction nocicéptive (léchage des pattes).
as §1

Structure (SMILES)	ED50 [1] [mg/kg]	ED50 [2] [mg/kg]	DI50a/DI50c [2]	Antagonisme à l'effet constipant DI50c [1]	activité par rapport à celle du bromoallylate de lévallorphan ([1]; test of antagonism of the constipating effect of morphine, fold higher activity) [fois]	Antagonisme à l'effet analgésique DI50a [2]	activité antagoniste, périphérique ou centrale ([1]; conclusion in words, covers both the constipation and the analgesia test)
C=CCN1CC[C@]23c4c5ccc(O)c4O[C@H]2C(=O)CC[C@@]3(O)[C@H]1C5 [naloxone, N-allyl-noroxymorphone]	0.8	0.06	0,08				
C=CC[N+]1(C)CC[C@]23CCCC[C@H]2[C@H]1Cc1ccc(O)cc13 (single isomer, unassigned) [iodométhylate de lévallorphan]		50	6,7	7,6 mg/kg (4,5 - 13,0)	> 2		
C=CC[N+]1(C)CCC23c4c5ccc(O)c4OC2C(O)C=CC3C1C5 (single isomer, unassigned) [bromométhylate de nalorphine]	3.7	8.6	2,32				
C=CC[N+]1(C)CCC23c4c5ccc(O)c4OC2C(=O)CCC3(O)C1C5.COS(=O)(=O)[O-] (stereo not drawn) [sulfométhylate de naloxone]				5,8 mg/kg (2,9 - 11,5)		1,6 mg/kg (0,7 - 3,6)	
C=CC[N+]1(C)CC[C@]23CCCC[C@H]2[C@H]1Cc1ccc(O)cc13 (single isomer, unassigned) [iodoallylate de lévorphanol]				50 mg/kg		50 mg/kg	inactif
C=CC[N+]1(CC=C)CC[C@]23CCCC[C@H]2[C@H]1Cc1ccc(O)cc13 [bromoallylate de lévallorphan]	15.6	15.2	0,97				
